The text below walks through data of US6593306B1, “Methods for modulation and inhibition of telomerase” (Board of Regents, The University of Texas Systems, priority 1995, dated 2003).

[7dzG] = 7-deaza-2'-deoxyguanosine (G*) Some results are limits rather than exact numbers.

For one series, the system named is MDA-231. The series is described as follows: Growth inhibition (MTT), MDA-231. The following applies: Homo sapiens, MDA-MB-231, 144 h, 6 days. In kind it is cell-based. As to the method: (§1) Exponentially growing cells (1-2×10^3 cells, unless specified otherwise) in 0.1 ml medium were seeded on day 0 in a 96-well microtiter plate. On day 1, 0.1 ml aliquots of medium containing graded concentrations of test analogs were added in duplicate to the cell plates. After incubation at 37° C. in a humidified incubator for 6 days, the plates were centrifuged briefly and 100 μl of the growth medium was removed. Cell cultures were incubated with 50 μl of 3-(4,5-dimethylthiazol-2-yl)-2,5-diphenyl-tetrazolium bromide, (MTT) at a concentration of 1 mg/ml in Dulbecco's phosphate buffered saline (PBS)) for 4 hr at 37° C. The resulting purple formazan precipitate was solubilized with 200 μl of 0.04 N HCl in isopropyl alcohol. Absorbance was monitored in a BioRad Model 3550 Microplate Reader at a test wavelength of 570 nm and a reference wavelength of 630 nm. The absorbance was transferred to a PC 486 computer. The IC50 values were determined by a computer program (EZ-ED50) that fits all the data to the following four-parameter logistic equation: [formula]
(§2) where Amax is the absorbance of control cells, Amin is the absorbance of cells in the presence of highest agent concentration, Y is the observed absorbance, X is the agent concentration, IC50 is the concentration of agent that inhibits the cell growth by 50% of control cells (based on the absorbance) and n is the slope of the curve.
(§3) This is due to the extracellular dephosphorylation of the mono-, di-, or triphosphates by […] or 5′-nucleotidase back to the nucleoside. With this in mind, the inventors used only nucleosides rather than nucleoside triphosphates in these studies. Cultured tumor cells were incubated with selected nucleosides at graded concentrations for 6 days and the growth inhibition was determined by the standard MTT assay.

A further series has as its system MCF-7. Put plainly: Growth inhibition (MTT), MCF-7. The following applies: Homo sapiens, MCF7, 144 h, 6 days. In kind it is cell-based. As to the method: as §1, §2, §3
In the next series the test system is BT-20. Put plainly: Growth inhibition (MTT), BT-20. In kind it is cell-based. To be noted: Homo sapiens, BT-20, 144 h, 6 days. As to the method:
as §1, §2, §3

A further series has as its system PC3. Put plainly: Growth inhibition (MTT), PC3. In kind it is cell-based. The following applies: Homo sapiens, PC-3, 144 h, 6 days. As to the method: as §1, §2, §3
Another series deals with SKBR3. Put plainly: Growth inhibition (MTT), SKBR3. In kind it is cell-based. To be noted: Homo sapiens, SK-BR-3, 144 h, 6 days. As to the method:
as §1, §2, §3

In series [1] the test system is human colon carcinoma HT29 cells. Put plainly: Growth inhibition (MTT), HT29 cells. Type of series: cell-based. The following applies: HT-29, 144 h, 6 days. As to the method: as §1, §2, §3
Another series concerns Raji. Put plainly: Growth inhibition (MTT), Raji. In kind it is cell-based. The following applies: Homo sapiens, 144 h, 6 days. As to the method:
as §1, §2, §3

For series [2], the system named is transformed human embryonic kidney 293 cells. Put plainly: Growth inhibition (MTT), 293 cells. In kind it is cell-based. The following applies: HEK293, 144 h, 6 days. As to the method: as §1, §2, §3
Another series deals with DU145. The series is described as follows: Growth inhibition (MTT), DU145. In kind it is cell-based. To be noted: Homo sapiens, DU-145, 144 h, 6 days. As to the method: as §1, §2, §3
Another series addresses T1, human telomerase (Homo sapiens, UniProt O14746).
T1 construct: telomerase in S100 extracts of transformed human fetal kidney tumor 293 cells (a processive telomerase); endogenous in cells; host or cells: human cells, (S100 extract)
Put plainly: Cell-free telomerase inhibition, conventional or modified assay not stated. Type of series: biochemical.

Another series concerns the target T2, UA-21 telomerase (Cricetulus griseus, UniProt A0A9J7FFE8).
T2 construct: non-processive telomerase activity in the S100 extracts of HeLa-S3, UA-21 and WI38 cell lines; endogenous in cells; host or cells: UA-21 cells (CHO subline), S100 extract
Put plainly: Telomerase assay with CHO non-processive telomerase. In kind it is biochemical, Chinese hamster. As to the method:
Selected nucleoside triphosphates were tested in one or both of the “conventional” or “modified” telomerase assays described in Methods using the human processive and the CHO non-processive telomerases. Initially, three chain-terminators were selected: 2′,3′-dideoxythymidine triphosphate (ddTTP), 3′-fluoro-2′,3′-dideoxythymidine triphosphate (F-ddTTP), and 3′-azido-2′-, 3′-dideoxythymidine triphosphate (AZ-ddTTP) as prototype agents to investigate whether they could inhibit telomerase activity. The three compounds are dTTP analogs without a 3′-OH group for subsequent chain elongation. They may either incorporate into the telomere sequence and terminate further chain elongation or compete directly with dTTP for the substrate binding site in the telomerase reaction. In either case, telomerase activity is inhibited.
The DNA ladder bands were quantitated using a Molecular Dynamic Personal Densitometer. The concentration of AZ-ddTTP required to inhibit the telomerase activity by 50% of the control is estimated to be 500 and 750 μM against the 293 and UA-21 telomerase, respectively. In contrast, the nucleoside AZT (3′-azidothymidine), at 2 mM, has a small effect on the telomerase activity.

For series [3], the system named is G-quartet structure of human telomeric DNA sequence. The series is described as follows: G-quartet formation by imino proton NMR. In kind it is physicochemical. The following applies: KCl-containing buffer; imino proton resonances 10-12 ppm. As to the method: The oligodeoxyribonucleotide having the sequence d(GGTTAGGGTTAG), corresponding to the human telomeric DNA sequence, was prepared using standard automated solid phase synthesis techniques employing a ten micromole synthesis on an Applied Biosystems Model 381A automated DNA synthesizer. Solid support and reagents were purchased from Biogenex, Glen Research, or Applied Biosystems, South San Francisco, Calif. The DNA sample was deprotected in concentrated NH4OH at 55° C. overnight, purified by reverse phase HPLC on a C18 column (Dynamax-300A) and then dialyzed extensively against deionized water. NMR samples were prepared by reconstituting lyophilized DNA in 90% H2O/10% D2O containing 1 mM EDTA/50 mM potassium phosphate and either 100 mM KCl or 100 mM NaCl. NMR experiments were carried out on a Bruker AMX 500 MHz spectrophotometer using a 1-1 echo pulse sequence with maximum excitation centered as 12.0 ppm.
After cleavage from the solid support, deprotection and purification, the oligodeoxyribonucleotide is dissolved in 90% H2O/10% D2O containing 100 mM KCl/1 mM EDTA/50 mM potassium phosphate. The imino NMR spectrum of this oligodeoxyribonucleotide is acquired at various temperatures from about 0° C.-80° C. and the presence of the diagnostic G-quartet imino is indicated by the presence of resonances at 10-12 ppm.

In series [4] the target is T3, human 293 cell telomerase (Homo sapiens, UniProt O14746).
T3 construct: with 20 μl of S100 enzyme extract; endogenous in cells; host or cells: 293 cells (transformed human embryonic kidney), S100 extract
Put plainly: Conventional telomerase assay (32P-dGTP as radiolabel substrate). In kind it is biochemical. The following applies: 293 cells telomerase; competing dTTP 1-2 mM; inhibitor 0 to 2 mM.

T1 sequence (O14746 whole entry): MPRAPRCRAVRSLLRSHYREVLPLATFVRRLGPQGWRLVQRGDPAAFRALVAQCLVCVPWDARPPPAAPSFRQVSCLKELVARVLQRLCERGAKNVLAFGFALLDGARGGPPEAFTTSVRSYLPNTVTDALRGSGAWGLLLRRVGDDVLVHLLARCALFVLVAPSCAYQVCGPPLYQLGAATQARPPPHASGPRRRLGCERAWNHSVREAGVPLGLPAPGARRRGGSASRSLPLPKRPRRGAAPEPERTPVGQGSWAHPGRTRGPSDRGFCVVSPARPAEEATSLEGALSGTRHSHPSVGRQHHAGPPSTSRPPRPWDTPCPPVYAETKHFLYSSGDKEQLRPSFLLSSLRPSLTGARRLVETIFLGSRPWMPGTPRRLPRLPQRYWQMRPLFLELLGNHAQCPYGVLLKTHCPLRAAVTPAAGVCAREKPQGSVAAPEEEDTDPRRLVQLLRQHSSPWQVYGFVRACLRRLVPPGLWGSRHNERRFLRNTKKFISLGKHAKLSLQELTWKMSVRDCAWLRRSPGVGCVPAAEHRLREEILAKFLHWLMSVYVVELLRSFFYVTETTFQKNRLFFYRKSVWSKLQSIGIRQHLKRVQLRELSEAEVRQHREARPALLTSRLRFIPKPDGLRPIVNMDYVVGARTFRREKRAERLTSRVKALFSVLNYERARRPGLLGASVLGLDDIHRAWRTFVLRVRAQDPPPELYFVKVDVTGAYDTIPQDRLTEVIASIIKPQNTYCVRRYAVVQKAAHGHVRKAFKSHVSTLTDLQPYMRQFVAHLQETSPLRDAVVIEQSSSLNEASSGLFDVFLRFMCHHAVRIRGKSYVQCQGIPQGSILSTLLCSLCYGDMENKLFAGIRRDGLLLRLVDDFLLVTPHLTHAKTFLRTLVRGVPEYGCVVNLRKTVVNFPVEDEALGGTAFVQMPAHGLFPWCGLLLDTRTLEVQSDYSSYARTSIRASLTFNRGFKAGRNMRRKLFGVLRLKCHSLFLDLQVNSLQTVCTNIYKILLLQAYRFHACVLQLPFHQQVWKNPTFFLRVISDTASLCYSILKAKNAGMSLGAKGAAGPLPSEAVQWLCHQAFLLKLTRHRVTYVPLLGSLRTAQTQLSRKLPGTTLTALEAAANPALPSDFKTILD
T1 sequence (O60832 whole entry partner): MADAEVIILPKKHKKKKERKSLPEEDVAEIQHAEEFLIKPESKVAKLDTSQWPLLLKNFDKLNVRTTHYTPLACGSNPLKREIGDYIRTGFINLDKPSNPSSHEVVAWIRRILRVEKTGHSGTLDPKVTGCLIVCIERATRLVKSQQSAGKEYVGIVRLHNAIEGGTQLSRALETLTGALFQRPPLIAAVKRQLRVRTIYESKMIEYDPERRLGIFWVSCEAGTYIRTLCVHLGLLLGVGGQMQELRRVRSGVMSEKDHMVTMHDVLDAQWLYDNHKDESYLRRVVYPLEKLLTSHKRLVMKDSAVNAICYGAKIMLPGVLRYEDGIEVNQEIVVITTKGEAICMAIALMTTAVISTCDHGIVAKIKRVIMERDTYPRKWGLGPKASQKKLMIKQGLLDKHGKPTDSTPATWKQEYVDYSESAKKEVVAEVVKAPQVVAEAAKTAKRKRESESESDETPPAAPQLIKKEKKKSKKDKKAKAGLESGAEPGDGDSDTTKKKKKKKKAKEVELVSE
T1 sequence (Q9NPE3 whole entry partner): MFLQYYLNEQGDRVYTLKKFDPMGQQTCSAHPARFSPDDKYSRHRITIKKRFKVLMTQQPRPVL
T1 sequence (Q9NX24 whole entry partner): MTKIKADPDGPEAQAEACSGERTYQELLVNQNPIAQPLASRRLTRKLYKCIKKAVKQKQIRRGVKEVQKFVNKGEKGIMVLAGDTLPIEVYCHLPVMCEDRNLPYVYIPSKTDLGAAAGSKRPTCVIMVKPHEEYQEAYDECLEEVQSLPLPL
T1 sequence (Q9NY12 whole entry partner): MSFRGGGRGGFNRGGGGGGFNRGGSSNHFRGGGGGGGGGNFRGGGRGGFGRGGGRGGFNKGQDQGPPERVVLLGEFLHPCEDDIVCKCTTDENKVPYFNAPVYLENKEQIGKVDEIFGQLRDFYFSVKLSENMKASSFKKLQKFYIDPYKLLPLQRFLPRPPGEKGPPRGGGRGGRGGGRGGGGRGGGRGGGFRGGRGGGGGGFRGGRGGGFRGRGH
T2 sequence (A0A9J7FFE8 1-1129): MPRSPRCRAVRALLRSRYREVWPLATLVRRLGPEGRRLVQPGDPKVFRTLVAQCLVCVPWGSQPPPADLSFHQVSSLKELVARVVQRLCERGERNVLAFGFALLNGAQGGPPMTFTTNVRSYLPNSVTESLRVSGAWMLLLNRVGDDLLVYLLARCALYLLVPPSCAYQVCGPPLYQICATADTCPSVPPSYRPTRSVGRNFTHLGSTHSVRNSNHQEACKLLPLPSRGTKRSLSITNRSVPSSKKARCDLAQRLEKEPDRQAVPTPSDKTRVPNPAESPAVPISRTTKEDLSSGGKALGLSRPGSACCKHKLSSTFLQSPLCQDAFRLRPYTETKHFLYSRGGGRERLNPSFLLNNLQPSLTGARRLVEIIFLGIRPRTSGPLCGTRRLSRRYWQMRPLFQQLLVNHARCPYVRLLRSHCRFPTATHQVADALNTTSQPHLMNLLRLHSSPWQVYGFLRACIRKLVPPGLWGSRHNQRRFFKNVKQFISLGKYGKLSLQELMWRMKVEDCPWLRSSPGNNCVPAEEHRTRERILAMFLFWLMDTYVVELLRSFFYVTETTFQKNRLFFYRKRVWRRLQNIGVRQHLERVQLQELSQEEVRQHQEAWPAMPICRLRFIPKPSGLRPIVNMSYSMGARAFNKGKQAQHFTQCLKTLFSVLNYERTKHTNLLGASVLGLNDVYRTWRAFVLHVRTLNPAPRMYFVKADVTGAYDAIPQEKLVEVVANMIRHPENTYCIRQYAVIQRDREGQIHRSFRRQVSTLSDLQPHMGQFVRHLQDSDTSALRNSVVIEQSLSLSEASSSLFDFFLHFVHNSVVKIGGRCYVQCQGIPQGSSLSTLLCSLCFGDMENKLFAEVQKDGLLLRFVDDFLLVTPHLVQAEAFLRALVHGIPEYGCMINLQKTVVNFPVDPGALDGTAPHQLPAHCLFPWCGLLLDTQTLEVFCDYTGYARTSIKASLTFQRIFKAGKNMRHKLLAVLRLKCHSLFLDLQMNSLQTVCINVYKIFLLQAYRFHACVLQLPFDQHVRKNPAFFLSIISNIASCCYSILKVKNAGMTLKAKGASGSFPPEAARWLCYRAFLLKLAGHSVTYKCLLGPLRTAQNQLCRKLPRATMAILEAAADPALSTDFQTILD
T3 sequence (O14746 whole entry): as the sequence (O14746 whole entry) above
T3 sequence (O60832 whole entry partner): as the sequence (O60832 whole entry partner) above
T3 sequence (Q9NPE3 whole entry partner): as the sequence (Q9NPE3 whole entry partner) above
T3 sequence (Q9NX24 whole entry partner): as the sequence (Q9NX24 whole entry partner) above
T3 sequence (Q9NY12 whole entry partner): as the sequence (Q9NY12 whole entry partner) above

For the compound `Nc1nc2c(ccn2[C@H]2C[C@H](O)[C@@H](CO)O2)c(=S)[nH]1` [NA028, 6-Thio-7-Deaza-2′-Deoxyguanosine], the IC50 was 117 µM in the series with MDA-231; 108 µM in the series with MCF-7; 84 µM with BT-20; 209 µM in the series with PC3; 108 µM in the series on SKBR3; 461 µM in series [1]. The IC50 in the series on Raji was 103 µM; in series [2], 461 µM; in the series with DU145, > 100 µM.
Turning to `CSc1nc(N)nc2c1ccn2C1CC(O)C(CO)O1` (centres unmarked) [Compound 3, 6-Thiomethyl-7-deaza-2′-deoxyguanosine], the IC50 in the series with MDA-231 is 281 µM; with MCF-7 it was 88.6 µM; in the series on BT-20 it was 94.3 µM; in the series on PC3, > 100 µM; in the series with SKBR3, 74 µM; in the series with Raji, 84.1 µM. Further, in the series on DU145, the IC50 was > 100 µM.
Consider `Cc1cn([C@H]2C[C@H](F)[C@@H](COP(=O)(O)OP(=O)(O)OP(=O)(O)O)O2)c(=O)[nH]c1=O` [NA002, 3′-Fluoro-3′-Deoxythymidine-5′-Triphosphate], for which the “effect against the processive human telomerase” value at human telomerase (concentration not given) is “little effect”. In addition, the “inhibition of the non-processive CHO telomerase” value against UA-21 telomerase (concentration not given) is given as “completely”.
Turning to “d(GGTTAGG*GTTAG): oligodeoxyribonucleotide where G* represents the 7-deaza-2′-deoxyguanosine residue (DNA GGTTAGGGTTAG; DNA, [7dzG] at 7, backbone not given here)”, the “temperature up to which G-quartet structure forms” value in series [3] is ≤ 20 °C.
“d(GGTTAGGGTTAG): oligodeoxyribonucleotide corresponding to the human telomeric DNA sequence (DNA, backbone not given here) [reference compound]”: in series [3], the “temperature up to which G-quartet structure forms” value is ≥ 70 °C.
On to `Cc1cn([C@H]2C[C@H](N=[N+]=[N-])[C@@H](CO[P@](=O)(O)O[P@](=O)(O)OP(=O)(O)O)O2)c(=O)[nH]c1=O` [NA010, 3′-Azido-3′-Deoxythymidine-5′-Triphosphate], for which the IC50 is ~200 µM in series [4]; ~500 µM on human telomerase (293 telomerase, estimated from densitometry, read-out: concentration required to inhibit the telomerase activity by 50% of the control); ~750 µM at UA-21 telomerase (UA-21 telomerase, estimated from densitometry, read-out: concentration required to inhibit the telomerase activity by 50% of the control).
